This is an account of results in patent US7759391B2, “Pharmaceutical composition comprising thiacremonone for treating colon cancer” (Chungbuk National University Industry Academic Cooperation …, priority 2007, dated 2010).

Values after ≈ are worked out from the molar mass of the structure shown.

In series [1] the target is T1, NF-κB (Homo sapiens, UniProt Q04206).
T1 construct: endogenous in cells; host or cells: SW620 and HCT116 human colon cancer cells (ATCC)
Nature of the series: Gel electromobility shift assay (EMSA), NF-κB DNA binding activity, SW620. The class given is cell-based. As to conditions: SW620, 30-150 μg/ml, 1 h. The protocol:
(§1) FIG. 1A: Nuclear extract from SW620 (panel a) and HCT116 (panel b) colon cancer cells treated with thiacremonone (30-150 μg/ml) for 1 h was incubated in binding reactions of ^32P-end-labeled oligonucleotide containing the κB sequence. The activation of NF-κB was investigated using EMSA as described in Materials and Methods. For competition assays, nuclear extracts from cells treated with TNF-α were incubated for 1 h before EMSA with unlabled NF-κB oligonucleotide or labeled NF-κB oligonucleotide. For supershift assays, nuclear extracts from cells treated with TNF-α were incubated for 1 h before EMSA with specific antibodies against the p50 and p65 NF-κB isoforms. SS indicates supershift assay using p65 antibody (panel c). Quantification of band intensities from three independent experimental results performed by densitometry (Imaging System) and the value under each band indicated as fold difference from the untreated control group.
(§2) Gel shift assay was performed according to the manufacturer's recommendations (Promega, Madison, Wis., USA). […] The relative density of the DNA-protein binding bands was scanned by densitometry using MyImage (SLB, Seoul, Korea), and quantified by Labworks 4.0 software (UVP Inc., Upland, Calif., USA).
For orientation: In EMSA bound probe runs differently from free probe, usually more slowly.

Series [2] has as its system HCT116 colon cancer cells. Nature of the series: Apoptosis detection, DAPI/TUNEL staining, HCT116. The class given is cell-based, human. As to conditions: 24 h. The procedure: FIG. 3B: The apoptotic index was determined as the DAPI-stained TUNEL-positive cell number counted. Values are mean±S.E.M. of three experiments, each performed in triplicate. *P<0.05 indicates statistically significant differences from the untreated group.
Apoptosis assay was first performed by using 4,6-diamino-2-phenylindole (DAPI) staining. SW620 and HCT116 human colon cancer cells were cultured in the absence or presence of increasing concentrations of thiacremonone, and induction of apoptotic cell death was evaluated after 24 h. Apoptotic cells were determined by the morphological changes after DAPI staining under fluorescence microscopic observation (DAS microscope, 100× or 200×: Leica Microsystems, Inc., Deefield, Ill., USA). Apoptosis was also evaluated by TUNEL staining assay. In short, cells were cultured on 8-chamber slides. After treatment with thiacremonone (30-150 μg/ml) for 24 h, the cells were washed twice with PBS and fixed by incubation in 4% paraformaldehyde in PBS for 1 h at room temperature. TUNEL assays were performed by using the in situ Cell Death Detection Kit (Roche Diagonostics GmbH, Mannheim, Germany) according to manufacturer's instructions. Total number of cells in a given area was determined by using DAPI and TUNEL staining. The apoptotic index was determined as the number of DAPIstained TUNEL-positive cells divided by the total cell number counted ×100.

The subject of series [3] is normal colon Caco-2 cells. Nature of the series: Cell viability, CCK-8 assay, normal cells. The class given is cell-based. To be noted: Caco-2, 30-150 μg/ml, 12-48 h. The protocol: (§3) Panel b of FIGS. 2A-2C: Cell viability was determined by CCK-8 assay as described in Materials and Methods. SW620 (FIG. 2A) and HCT116 (FIG. 2B) colon cancer cells as well as normal cells (Caco-2) (FIG. 2C) were treated with various doses (30-150 μg/ml) of thiacremonone for different times (12-48 h). Values are each the mean±S.D. of three experiments, each performed in triplicate.
(§4) SW620 and HCT116 colon cancer cells were plated at a density of 10^4 cells/well in 96-well plates per 100 μl medium. To determine the appropriate concentration that is not cytotoxic to the cells, the cytotoxic effect was evaluated in cells cultured for 12, 24, 36, and 48 h using the cell counting kit-8 assay kit according to the manufacturer's instructions (Dojindo, Gaithersburg, Md., USA). Briefly, 10 μl of the CCK-8 solution was added to cells cultured for the designated time. The plates were incubated for 1-4 h in the incubator. The resulting color was assayed at […] using a microplate absorbance reader (Sunrise, Tecan, Switzerland). Each assay was carried out in triplicate.
For orientation: Tetrazolium assays rely on reduction of a dye to a coloured formazan, in cell work by metabolically active cells.

For the next series, the system named is SW620 colon cancer cells. Nature of the series: Cell viability / growth, CCK-8 assay, SW620. As to conditions: Homo sapiens, SW-620, read-out: IC50 of cell growth inhibition, heading: IC50 of cell growth inhibition, SW620, 48 h. The class given is cell-based. The procedure: as §3, §4
For series [4], the target named is T1, NF-κB. Nature of the series: Gel electromobility shift assay (EMSA), NF-κB DNA binding activity, HCT116. The class given is cell-based. As to conditions: HCT116, 30-150 μg/ml, 1 h. The procedure:
as §1, §2

In series [5] the test system is HCT116 colon cancer cells. Nature of the series: Cell viability / growth, CCK-8 assay, HCT116. The class given is cell-based. To be noted: Homo sapiens, HCT-116, HCT116, 48 h, read-out: IC50 of cell growth inhibition. The protocol:
as §3, §4

T1 sequence (Q04206 whole entry): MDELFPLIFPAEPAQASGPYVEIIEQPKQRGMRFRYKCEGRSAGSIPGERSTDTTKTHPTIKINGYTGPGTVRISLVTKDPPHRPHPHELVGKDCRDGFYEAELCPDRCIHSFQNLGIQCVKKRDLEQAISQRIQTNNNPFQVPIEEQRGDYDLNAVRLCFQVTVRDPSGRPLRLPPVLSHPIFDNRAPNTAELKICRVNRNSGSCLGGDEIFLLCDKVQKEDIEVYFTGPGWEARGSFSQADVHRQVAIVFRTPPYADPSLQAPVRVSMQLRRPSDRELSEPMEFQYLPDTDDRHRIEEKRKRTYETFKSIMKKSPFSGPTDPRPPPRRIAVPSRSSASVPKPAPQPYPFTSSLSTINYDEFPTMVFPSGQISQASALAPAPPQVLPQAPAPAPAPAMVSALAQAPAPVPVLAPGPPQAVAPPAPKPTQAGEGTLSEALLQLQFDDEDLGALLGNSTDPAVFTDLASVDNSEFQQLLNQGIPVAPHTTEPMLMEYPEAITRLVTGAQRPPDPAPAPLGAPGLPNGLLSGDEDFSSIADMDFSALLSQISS
T1 sequence (P19838 1-433 partner limits assumed): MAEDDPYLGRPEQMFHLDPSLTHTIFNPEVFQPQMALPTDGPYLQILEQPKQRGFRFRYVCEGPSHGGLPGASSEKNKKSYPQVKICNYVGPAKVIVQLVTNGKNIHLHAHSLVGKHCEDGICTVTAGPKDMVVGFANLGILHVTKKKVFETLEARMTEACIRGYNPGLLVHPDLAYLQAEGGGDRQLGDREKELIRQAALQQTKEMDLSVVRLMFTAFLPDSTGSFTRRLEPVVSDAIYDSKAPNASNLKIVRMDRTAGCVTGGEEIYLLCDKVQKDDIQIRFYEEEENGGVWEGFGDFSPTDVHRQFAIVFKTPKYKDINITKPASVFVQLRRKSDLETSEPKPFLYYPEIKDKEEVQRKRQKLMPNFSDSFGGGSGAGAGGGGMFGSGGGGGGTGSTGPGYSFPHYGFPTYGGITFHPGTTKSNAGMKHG

As for `CC1=C(O)C(=O)C(C)(O)S1` (stereo not shown) [thiacremonone, 2,4-dihydroxy-2,5-dimethyl-thiophene-3-one], the “DNA binding activity of NF-κB” value on NF-κB [1] and on NF-κB [4] was “decreased DNA binding activity of NF-κB in a dose-dependent manner” in each case. The apoptotic cell number in series [2] (HCT116, 30 μg/ml) is given as 0%; in series [2] (HCT116, 60 μg/ml) it was 0%; in series [2] (HCT116, 90 μg/ml), 29%; in series [2] (HCT116, 120 μg/ml) it was 95%; in series [2] (HCT116, 150 μg/ml) it was 98%. The cytotoxic effect result in series [3] is reported as “no cytotoxic effect”. Further, the IC50 in the series on SW620 colon cancer cells is 105 µg/mL (≈ 655 µM); in series [5] it was 130 µg/mL (≈ 812 µM).

As a reminder, the IC50 is the concentration needed to halve the response being measured.
